Experimental data from PubChem BioAssay AID1963423 (Molecular Pharmacology Branch, DTP, NCI, 2024).
Several values for one entry are separate records, joined by “and”; a condition that tells them apart may be missing. Equal values may be shown once.

Tested on: 439559-082-T-J2-PDC complex spheroid growth
Experiment: Anticancer human tumor 439559-082-T-J2-PDC patient-derived colon adenocarcinoma cell line growth inhibition [Asc]
Conditions: for viability, T/C: stronger effect = lower value
In short: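 Complex solid-tumor spheroids incorporating human endothelial and mesenchymal stem cells received single agents or combinations over half-log dilution ranges anchored to clinical Cmax.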

[1] = curve of first compound, second compound 0.03 µM
[2] = curve of first compound, second compound 0.0949 µM
[3] = curve of first compound, second compound 0.3 µM
[4] = curve of first compound, second compound 0.949 µM
[5] = curve of first compound, second compound 3 µM
[6] = second compound 0.03 µM, first compound 0.00316 µM
[7] = second compound 0.03 µM, first compound 0.01 µM
[8] = second compound 0.03 µM, first compound 0.0316 µM
[9] = second compound 0.03 µM, first compound 0.1 µM
[10] = second compound 0.03 µM, first compound 0.316 µM
[11] = second compound 0.03 µM, first compound 1 µM
[12] = second compound 0.0949 µM, first compound 0.00316 µM
[13] = second compound 0.0949 µM, first compound 0.01 µM
[14] = second compound 0.0949 µM, first compound 0.0316 µM
[15] = second compound 0.0949 µM, first compound 0.1 µM
[16] = second compound 0.0949 µM, first compound 0.316 µM
[17] = second compound 0.0949 µM, first compound 1 µM
[18] = second compound 0.3 µM, first compound 0.00316 µM
[19] = second compound 0.3 µM, first compound 0.01 µM
[20] = second compound 0.3 µM, first compound 0.0316 µM
[21] = second compound 0.3 µM, first compound 0.1 µM
[22] = second compound 0.3 µM, first compound 0.316 µM
[23] = second compound 0.3 µM, first compound 1 µM
[24] = second compound 0.949 µM, first compound 0.00316 µM
[25] = second compound 0.949 µM, first compound 0.01 µM
[26] = second compound 0.949 µM, first compound 0.0316 µM
[27] = second compound 0.949 µM, first compound 0.1 µM
[28] = second compound 0.949 µM, first compound 0.316 µM
[29] = second compound 0.949 µM, first compound 1 µM
[30] = second compound 3 µM, first compound 0.00316 µM
[31] = second compound 3 µM, first compound 0.01 µM
[32] = second compound 3 µM, first compound 0.0316 µM
[33] = second compound 3 µM, first compound 0.1 µM
[34] = second compound 3 µM, first compound 0.316 µM
[35] = second compound 3 µM, first compound 1 µM
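Further: spheroids exposed to agents for 7 days starting day 3 after seeding.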
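Wherever viability, T/C is given: percent of DMSO vehicle control viability with 100% = vehicle.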

SMILES | IC50 [1] | IC50 [2] | IC50 [3] | IC50 [4] | IC50 [5] | viability, T/C [8] | viability, T/C [9] | viability, T/C [10] | viability, T/C [11] | viability, T/C [14] | viability, T/C [15] | viability, T/C [16] | viability, T/C [17] | viability, T/C [20] | viability, T/C [21] | viability, T/C [22] | viability, T/C [23] | viability, T/C [26] | viability, T/C [27] | viability, T/C [28] | further results
COc1c(OCCCN2CCOCC2)ccc2c3n(c(=NC(=O)c4cnc(N)nc4)nc12)CCN3 + CCN1C(C(=O)NC23CCC(C(=O)O)(CC2)CC3)C(c2cccc(Cl)c2F)C2(C(=O)Nc3cc(Cl)ccc32)C12CCCCC2 | > 1000 nM | > 1000 nM | > 1000 nM | > 1000 nM | > 1000 nM | 94.1% | 71.7% | 63.3% | 57.4% | 90.7% | 69% | 67.3% | 60.8% | 89.4% | 68.7% | 59.7% | 60.9% | 96.6% | 69.5% | 60.6% | viability, T/C [6]: 98.5%; viability, T/C [7]: 98.3%; viability, T/C [12]: 96.4%; viability, T/C [13]: 96.9%; viability, T/C [18]: 88.9%; viability, T/C [19]: 99.9%; viability, T/C [24]: 95.8%; viability, T/C [25]: 98.3%; viability, T/C [29]: 63.1%; viability, T/C [30]: 80.1%; viability, T/C [31]: 83.8%; viability, T/C [32]: 93.2%; viability, T/C [33]: 63%; viability, T/C [34]: 59%; viability, T/C [35]: 55.2%
CCN1CCN(Cc2ccc(Nc3ncc(F)c(-c4cc(F)c5nc(C)n(C(C)C)c5c4)n3)nc2)CC1 + CCN1C(C(=O)NC23CCC(C(=O)O)(CC2)CC3)C(c2cccc(Cl)c2F)C2(C(=O)Nc3cc(Cl)ccc32)C12CCCCC2 | > 1000 nM | > 1000 nM | > 1000 nM | > 1000 nM | > 1000 nM | 94.4% | 88.9% | 85.7% | 83% | 98.8% | 80.7% | 94% | 84.8% | 115% | 87.2% | 86.8% | 85% | 114% | 93.5% | 96.7% | viability, T/C [6]: 107%; viability, T/C [7]: 105%; viability, T/C [12]: 104%; viability, T/C [13]: 107%; viability, T/C [18]: 99.1%; viability, T/C [19]: 106%; viability, T/C [24]: 99.2%; viability, T/C [25]: 102%; viability, T/C [29]: 90%; viability, T/C [30]: 87.5%; viability, T/C [31]: 94%; viability, T/C [32]: 105%; viability, T/C [33]: 80.7%; viability, T/C [34]: 87%; viability, T/C [35]: 84.7%
COc1c(OCCCN2CCOCC2)ccc2c3n(c(=NC(=O)c4cnc(N)nc4)nc12)CCN3 | – | – | – | – | – | – | – | – | – | – | – | – | – | – | – | – | – | – | – | – | viability, T/C (compound 0.00316 µM): 100% and 101% and 93.5%; viability, T/C (compound 0.01 µM): 104% (2×) and 90.9%; viability, T/C (compound 0.0316 µM): 81.6% and 87.4% and 102%; viability, T/C (compound 0.1 µM): 78.7% and 76.9% and 72.9%; viability, T/C (compound 0.316 µM): 80% and 71.6% and 75.5%; viability, T/C (compound 1 µM): 58.6% and 59% and 69.4%; IC50 (curve of compound): > 1000 nM
Cn1ncnc1[C@H]1c2n[nH]c(=O)c3cc(F)cc(c23)N[C@@H]1c1ccc(F)cc1 | – | – | – | – | – | – | – | – | – | – | – | – | – | – | – | – | – | – | – | – | viability, T/C (compound 0.000316 µM): 104% and 97.5% and 103%; viability, T/C (compound 0.001 µM): 108% and 97.8% and 112%; viability, T/C (compound 0.00316 µM): 97.6% and 103% and 92%; viability, T/C (compound 0.01 µM): 95.5% and 95.2% and 97.6%; viability, T/C (compound 0.0316 µM): 102% and 105% and 107%; viability, T/C (compound 0.1 µM): 98.1% and 92.3% and 98.5%; IC50 (curve of compound): > 100 nM
O=C(c1ccc(F)c(F)c1Nc1ccc(I)cc1F)N1CC(O)([C@@H]2CCCCN2)C1 + CCN1C(C(=O)NC23CCC(C(=O)O)(CC2)CC3)C(c2cccc(Cl)c2F)C2(C(=O)Nc3cc(Cl)ccc32)C12CCCCC2 | 223 nM | 233 nM | 235 nM | 172 nM | 97.6 nM | 83.8% | 61.6% | 46.9% | 22.5% | 84.8% | 58.2% | 52.6% | 16.3% | 91.7% | 64.3% | 47.2% | 8.43% | 88.4% | 54.5% | 41.1% | viability, T/C [6]: 103%; viability, T/C [7]: 101%; viability, T/C [12]: 111%; viability, T/C [13]: 106%; viability, T/C [18]: 98.7%; viability, T/C [19]: 110%; viability, T/C [24]: 111%; viability, T/C [25]: 93.5%; viability, T/C [29]: 16.2%; viability, T/C [30]: 96.8%; viability, T/C [31]: 81.7%; viability, T/C [32]: 78.1%; viability, T/C [33]: 47%; viability, T/C [34]: 27%; viability, T/C [35]: 12.2%
C=CC(=O)N1CCN(c2nc(=O)n(-c3c(C)ccnc3C(C)C)c3nc(-c4c(O)cccc4F)c(F)cc23)C(C)C1 (centres undefined) + CCN1C(C(=O)NC23CCC(C(=O)O)(CC2)CC3)C(c2cccc(Cl)c2F)C2(C(=O)Nc3cc(Cl)ccc32)C12CCCCC2 | > 10000 nM | > 10000 nM | > 10000 nM | > 10000 nM | > 10000 nM | 108% | 106% | 108% | 96.5% | 103% | 106% | 110% | 93.2% | 103% | 103% | 110% | 89.7% | 102% | 110% | 117% | viability, T/C (second compound 0.03 µM, first compound 3.16 µM): 107%; viability, T/C (second compound 0.03 µM, first compound 10 µM): 98.6%; viability, T/C (second compound 0.0949 µM, first compound 3.16 µM): 101%; viability, T/C (second compound 0.0949 µM, first compound 10 µM): 103%; viability, T/C (second compound 0.3 µM, first compound 3.16 µM): 100%; viability, T/C (second compound 0.3 µM, first compound 10 µM): 109%; viability, T/C [29]: 93.8%; viability, T/C (second compound 0.949 µM, first compound 3.16 µM): 99%; viability, T/C (second compound 0.949 µM, first compound 10 µM): 104%; viability, T/C [32]: 94.7%; viability, T/C [33]: 94.6%; viability, T/C [34]: 107%; viability, T/C [35]: 85.7%; viability, T/C (second compound 3 µM, first compound 3.16 µM): 90%; viability, T/C (second compound 3 µM, first compound 10 µM): 91.8%
